Results published in ChEMBL document CHEMBL3885881, “DrugMatrix”.

Organism: Rattus norvegicus
Assay: DrugMatrix - Regimen: Daily Repeat
Type: toxicity, organism-based, Sprague-Dawley
Parameters: regimen Daily Repeat, gender Male, age 6-8 weeks
Details: in vivo, po, route oral GAVAGE; for ABSOLUTE BASOPHIL / ABSOLUTE EOSINOPHIL / ABSOLUTE LYMPHOCYTE / ABSOLUTE MONOCYTE / ABSOLUTE SEGMENTED NEUTROPHIL / BASOPHIL / EOSINOPHIL / ERYTHROCYTE COUNT / HEMATOCRIT / HEMOGLOBIN / LEUKOCYTE COUNT / LYMPHOCYTE / MEAN CORPUSCULAR HEMOGLOBIN / MEAN CORPUSCULAR HEMOGLOBIN CONCENTRATION / MEAN CORPUSCULAR VOLUME / MONOCYTE / NEUTROPHIL / NUCLEATED RED BLOOD CELLS / PLATELET COUNT: tissue Blood; for ALANINE AMINOTRANSFERASE / ALBUMIN / ALKALINE PHOSPHATASE / ASPARTATE AMINOTRANSFERASE / BLOOD UREA NITROGEN / CARBON DIOXIDE / CHLORIDE / CHOLESTEROL / CREATINE PHOSPHOKINASE / CREATININE / GLUCOSE / LACTATE DEHYDROGENASE / LIPASE / PHOSPHORUS / POTASSIUM / SODIUM / TOTAL BILIRUBIN / TOTAL PROTEIN / URIC ACID: tissue Plasma
[1] = 0 mg/kg, 72 h, dose level Control, time 3 day, […]
[2] = 0 mg/kg, 72 h, dose level Control, time 3 day, vehicle 100 % WATER
[3] = 0 mg/kg, 120 h, dose level Control, time 5 day, […]
[4] = 0 mg/kg, 120 h, dose level Control, time 5 day, vehicle 100 % WATER
[5] = 20 mg/kg, 72 h, dose level Low, time 3 day, […]
[6] = 20 mg/kg, 120 h, dose level Low, time 5 day, […]

Cn1cnc([N+](=O)[O-])c1Sc1ncnc2nc[nH]c12 [AZATHIOPRINE]
ABSOLUTE BASOPHIL [1]: 0 CELLS/uL
ABSOLUTE EOSINOPHIL [1]: 0 CELLS/uL
ABSOLUTE LYMPHOCYTE [1]: 7601 CELLS/uL
ABSOLUTE MONOCYTE [1]: 354.33 CELLS/uL
ABSOLUTE SEGMENTED NEUTROPHIL [1]: 744.67 CELLS/uL
BASOPHIL [1]: 0%
EOSINOPHIL [1]: 0%
ERYTHROCYTE COUNT [1]: 5.03 x10E6/uL
HEMATOCRIT [1]: 33.7%
HEMOGLOBIN [1]: 13.43 G/DL
LEUKOCYTE COUNT [1]: 8.7 x10E3/uL
LYMPHOCYTE [1]: 86.33%
MEAN CORPUSCULAR HEMOGLOBIN [1]: 26.7 pg
MEAN CORPUSCULAR HEMOGLOBIN CONCENTRATION [1]: 39.83 G/DL
MEAN CORPUSCULAR VOLUME [1]: 67 fL
MONOCYTE [1]: 4.67%
NEUTROPHIL [1]: 9%
NUCLEATED RED BLOOD CELLS [1]: 0 /100WBC
PLATELET COUNT [1]: 1151 x10E3/uL
ABSOLUTE EOSINOPHIL [2]: 91.5 CELLS/uL
ABSOLUTE LYMPHOCYTE [2]: 14108.83 CELLS/uL
ABSOLUTE MONOCYTE [2]: 81 CELLS/uL
ABSOLUTE SEGMENTED NEUTROPHIL [2]: 818.67 CELLS/uL
EOSINOPHIL [2]: 0.67%
ERYTHROCYTE COUNT [2]: 5.56 x10E6/uL
HEMATOCRIT [2]: 34.5%
HEMOGLOBIN [2]: 13.45 G/DL
LEUKOCYTE COUNT [2]: 15.1 x10E3/uL
LYMPHOCYTE [2]: 93%
MEAN CORPUSCULAR HEMOGLOBIN [2]: 24.2 pg
MEAN CORPUSCULAR HEMOGLOBIN CONCENTRATION [2]: 38.98 G/DL
MEAN CORPUSCULAR VOLUME [2]: 62.07 fL
MONOCYTE [2]: 0.5%
NEUTROPHIL [2]: 5.83%
PLATELET COUNT [2]: 1193.33 x10E3/uL
ALANINE AMINOTRANSFERASE [1]: 97.67 u/L
ALBUMIN [1]: 4.07 G/DL
ALKALINE PHOSPHATASE [1]: 607.67 u/L
ASPARTATE AMINOTRANSFERASE [1]: 101 u/L
BLOOD UREA NITROGEN [1]: 13.33 mg/dL
CARBON DIOXIDE [1]: 36 mmol/L
CHLORIDE [1]: 99.67 MEQ/L
CHOLESTEROL [1]: 75.67 mg/dL
CREATINE PHOSPHOKINASE [1]: 279.67 u/L
CREATININE [1]: 0.16 mg/dL
GLUCOSE [1]: 164 mg/dL
LACTATE DEHYDROGENASE [1]: 115 u/L
LIPASE [1]: 12.67 u/L
PHOSPHORUS [1]: 8.77 mg/dL
POTASSIUM [1]: 5.79 MEQ/L
SODIUM [1]: 142.83 MEQ/L
TOTAL BILIRUBIN [1]: 0.27 mg/dL
TOTAL PROTEIN [1]: 5.8 G/DL
URIC ACID [1]: 0.67 mg/dL
ALANINE AMINOTRANSFERASE [2]: 60.33 u/L
ALBUMIN [2]: 4 G/DL
ALKALINE PHOSPHATASE [2]: 334.83 u/L
ASPARTATE AMINOTRANSFERASE [2]: 74.5 u/L
BLOOD UREA NITROGEN [2]: 13.5 mg/dL
CARBON DIOXIDE [2]: 30.33 mmol/L
CHLORIDE [2]: 98.33 MEQ/L
CHOLESTEROL [2]: 71.17 mg/dL
CREATINE PHOSPHOKINASE [2]: 212 u/L
CREATININE [2]: 0.21 mg/dL
GLUCOSE [2]: 173.17 mg/dL
LACTATE DEHYDROGENASE [2]: 101.5 u/L
LIPASE [2]: 24.17 u/L
PHOSPHORUS [2]: 10.87 mg/dL
POTASSIUM [2]: 6.06 MEQ/L
SODIUM [2]: 140.58 MEQ/L
TOTAL BILIRUBIN [2]: 0.17 mg/dL
TOTAL PROTEIN [2]: 5.9 G/DL
URIC ACID [2]: 1.23 mg/dL
ABSOLUTE BASOPHIL [3]: 0 CELLS/uL
ABSOLUTE EOSINOPHIL [3]: 0 CELLS/uL
ABSOLUTE LYMPHOCYTE [3]: 4426.33 CELLS/uL
ABSOLUTE MONOCYTE [3]: 102.67 CELLS/uL
ABSOLUTE SEGMENTED NEUTROPHIL [3]: 337.67 CELLS/uL
BASOPHIL [3]: 0%
EOSINOPHIL [3]: 0%
ERYTHROCYTE COUNT [3]: 5.31 x10E6/uL
HEMATOCRIT [3]: 32.5%
HEMOGLOBIN [3]: 13.17 G/DL
LEUKOCYTE COUNT [3]: 4.87 x10E3/uL
LYMPHOCYTE [3]: 90.33%
MEAN CORPUSCULAR HEMOGLOBIN [3]: 24.93 pg
MEAN CORPUSCULAR HEMOGLOBIN CONCENTRATION [3]: 40.67 G/DL
MEAN CORPUSCULAR VOLUME [3]: 61.33 fL
MONOCYTE [3]: 2.33%
NEUTROPHIL [3]: 7.33%
NUCLEATED RED BLOOD CELLS [3]: 0.33 /100WBC
PLATELET COUNT [3]: 848.33 x10E3/uL
ABSOLUTE EOSINOPHIL [4]: 34.5 CELLS/uL
ABSOLUTE LYMPHOCYTE [4]: 8181 CELLS/uL
ABSOLUTE MONOCYTE [4]: 82.67 CELLS/uL
ABSOLUTE SEGMENTED NEUTROPHIL [4]: 435.17 CELLS/uL
EOSINOPHIL [4]: 0.5%
HEMATOCRIT [4]: 33.83%
HEMOGLOBIN [4]: 13.37 G/DL
LEUKOCYTE COUNT [4]: 8.73 x10E3/uL
LYMPHOCYTE [4]: 93.5%
MEAN CORPUSCULAR HEMOGLOBIN [4]: 25.2 pg
MEAN CORPUSCULAR HEMOGLOBIN CONCENTRATION [4]: 39.53 G/DL
MEAN CORPUSCULAR VOLUME [4]: 63.73 fL
MONOCYTE [4]: 1%
NEUTROPHIL [4]: 5%
NUCLEATED RED BLOOD CELLS [4]: 0 /100WBC
PLATELET COUNT [4]: 1057.33 x10E3/uL
ALANINE AMINOTRANSFERASE [3]: 59.67 u/L
ALBUMIN [3]: 3.87 G/DL
ALKALINE PHOSPHATASE [3]: 452 u/L
ASPARTATE AMINOTRANSFERASE [3]: 81.33 u/L
BLOOD UREA NITROGEN [3]: 13.67 mg/dL
CARBON DIOXIDE [3]: 26.33 mmol/L
CHLORIDE [3]: 103.67 MEQ/L
CHOLESTEROL [3]: 65.67 mg/dL
CREATINE PHOSPHOKINASE [3]: 355.33 u/L
CREATININE [3]: 0.14 mg/dL
GLUCOSE [3]: 171.33 mg/dL
LACTATE DEHYDROGENASE [3]: 118 u/L
LIPASE [3]: 11.33 u/L
PHOSPHORUS [3]: 11.13 mg/dL
POTASSIUM [3]: 5.18 MEQ/L
SODIUM [3]: 143.17 MEQ/L
TOTAL BILIRUBIN [3]: 0.2 mg/dL
TOTAL PROTEIN [3]: 5.87 G/DL
URIC ACID [3]: 0.63 mg/dL
ALANINE AMINOTRANSFERASE [4]: 54.33 u/L
ALBUMIN [4]: 4.07 G/DL
ALKALINE PHOSPHATASE [4]: 308.67 u/L
ASPARTATE AMINOTRANSFERASE [4]: 83.17 u/L
BLOOD UREA NITROGEN [4]: 14 mg/dL
CARBON DIOXIDE [4]: 34 mmol/L
CHLORIDE [4]: 98 MEQ/L
CHOLESTEROL [4]: 71.33 mg/dL
CREATINE PHOSPHOKINASE [4]: 266.5 u/L
CREATININE [4]: 0.27 mg/dL
GLUCOSE [4]: 133 mg/dL
LACTATE DEHYDROGENASE [4]: 127 u/L
LIPASE [4]: 11.67 u/L
PHOSPHORUS [4]: 10.6 mg/dL
POTASSIUM [4]: 6.17 MEQ/L
SODIUM [4]: 142.68 MEQ/L
TOTAL BILIRUBIN [4]: 0.15 mg/dL
TOTAL PROTEIN [4]: 6.03 G/DL
URIC ACID [4]: 0.75 mg/dL
ABSOLUTE BASOPHIL [5]: 0 CELLS/uL
ABSOLUTE EOSINOPHIL [5]: 0 CELLS/uL
ABSOLUTE LYMPHOCYTE [5]: 5839.67 CELLS/uL
ABSOLUTE MONOCYTE [5]: 204 CELLS/uL
ABSOLUTE SEGMENTED NEUTROPHIL [5]: 256.33 CELLS/uL
BASOPHIL [5]: 0%
EOSINOPHIL [5]: 0%
ERYTHROCYTE COUNT [5]: 4.55 x10E6/uL
HEMATOCRIT [5]: 29%
HEMOGLOBIN [5]: 11.47 G/DL
LEUKOCYTE COUNT [5]: 6.3 x10E3/uL
LYMPHOCYTE [5]: 93%
MEAN CORPUSCULAR HEMOGLOBIN [5]: 25.37 pg
MEAN CORPUSCULAR HEMOGLOBIN CONCENTRATION [5]: 39.7 G/DL
MEAN CORPUSCULAR VOLUME [5]: 64 fL
MONOCYTE [5]: 3%
NEUTROPHIL [5]: 4%
NUCLEATED RED BLOOD CELLS [5]: 0.33 /100WBC
PLATELET COUNT [5]: 1104.33 x10E3/uL
ALANINE AMINOTRANSFERASE [5]: 61 u/L
ALBUMIN [5]: 4.2 G/DL
ALKALINE PHOSPHATASE [5]: 326.33 u/L
ASPARTATE AMINOTRANSFERASE [5]: 82 u/L
BLOOD UREA NITROGEN [5]: 14 mg/dL
CARBON DIOXIDE [5]: 39.33 mmol/L
CHLORIDE [5]: 106.33 MEQ/L
CHOLESTEROL [5]: 92.67 mg/dL
CREATINE PHOSPHOKINASE [5]: 229 u/L
CREATININE [5]: 0.21 mg/dL
GLUCOSE [5]: 156.33 mg/dL
LACTATE DEHYDROGENASE [5]: 82.67 u/L
LIPASE [5]: 11 u/L
PHOSPHORUS [5]: 9.27 mg/dL
POTASSIUM [5]: 5.07 MEQ/L
SODIUM [5]: 137.8 MEQ/L
TOTAL BILIRUBIN [5]: 0.1 mg/dL
TOTAL PROTEIN [5]: 6.23 G/DL
URIC ACID [5]: 0.5 mg/dL
ABSOLUTE BASOPHIL [6]: 0 CELLS/uL
ABSOLUTE EOSINOPHIL [6]: 0 CELLS/uL
ABSOLUTE LYMPHOCYTE [6]: 5125.67 CELLS/uL
